# From publication PMC3731320, “Identification of Benzimidazole Diamides as Selective Inhibitors of the Nucleotide-Binding Oligomerization Domain 2 (NOD2) Signaling Pathway” (PLoS ONE, 2013)
# System: NOD2
# Test: MDP-stimulated IL-8 release in 293/hNOD2 cells (HTRF)
# Assay type: cell-based, human
# Conditions: Homo sapiens; MDP-stimulated IL-8 production assay in 293/hNOD2 cells; Figures 4 and 5; read-out: NOD2 IC50
# Description: After 24 hours the amount of IL-8 secreted into the medium was determined by homogeneous time resolved fluorescence (HTRF) assay by the direct addition of a 1:1 mix of europium cryptate and XL665-conjugated anti-IL-8 antibodies according to the manufacturer's instructions (Cisbio).
row,SMILES,IC50 [µM]
1,"O=C(Cn1c(CCNC(=O)c2ccccc2)nc2ccccc21)Nc1ccc2c(c1)CCN2 [Compound 10, N-(2-(1-(2-(indolin-5-ylamino)-2-oxoethyl)-1H-benzo[d]imidazol-2-yl)ethyl)benzamide]",> 50
2,"O=C(Cn1c(CCNC(=O)c2ccccc2Cl)nc2ccccc21)Nc1ccc2c(c1)CCC2 [Compound 16, 2-chloro-N-(2-(1-(2-((2,3-dihydro-1H-inden-5-yl)amino)-2-oxoethyl)-1H-benzo[d]imidazol-2-yl)ethyl)benzamide]",3.8 ± 1.4
3,"CN(CCc1nc2ccccc2n1CC(=O)N(C)c1ccc2c(c1)CCC2)C(=O)c1ccccc1 [Compound 30, N-(2-(1-(2-((2,3-dihydro-1H-inden-5-yl)(methyl)amino)-2-oxoethyl)-1H-benzo[d]imidazol-2-yl)ethyl)-N-methylbenzamide]",17 ± 2
4,"O=C(Cn1c(CCNC(=O)c2ccccc2)nc2cc(Cl)ccc21)Nc1ccc2c(c1)CCC2 [Compound 23, N-(2-(5-chloro-1-(2-((2,3-dihydro-1H-inden-5-yl)amino)-2-oxoethyl) -1H-benzo[d]imidazol-2-yl)ethyl)benzamide]",1.3 ± 0.1
5,"CC(C)c1cccc(NC(=O)Cn2c(CCNC(=O)c3ccccc3)nc3ccccc32)c1 [Compound 3, N-(2-(1-(2-((3-isopropylphenyl)amino)-2-oxoethyl)-1H-benzo[d]imidazol-2-yl)ethyl)benzamide]",0.8 ± 0.5
6,"Cc1cccc(C(=O)NCCc2nc3ccccc3n2CC(=O)Nc2ccc3c(c2)CCC3)c1 [Compound 21, N-(2-(1-(2-((2,3-dihydro-1H-inden-5-yl)amino)-2-oxoethyl)-1H-benzo[d]imidazol-2-yl)ethyl)-3-methylbenzamide]",> 50
7,"O=C(Cn1c(CCNC(=O)c2ccc(Cl)c(Cl)c2)nc2ccccc21)Nc1ccc2c(c1)CCC2 [Compound 19, 3,4-dichloro-N-(2-(1-(2-((2,3-dihydro-1H-inden-5-yl)amino)-2-oxoethyl)-1H-benzo[d]imidazol-2-yl)ethyl)benzamide]",> 50
8,"COc1ccc2nc(CCNC(=O)c3ccccc3)n(CC(=O)Nc3ccc4c(c3)CCC4)c2c1 [Compound 27, N-(2-(1-(2-((2,3-dihydro-1H-inden-5-yl)amino)-2-oxoethyl)-6-methoxy-1H-benzo[d]imidazol-2-yl)ethyl)benzamide]",> 50
9,"Cc1ccc(NC(=O)Cn2c(CCNC(=O)c3ccccc3)nc3ccccc32)cc1C [Compound 6, N-(2-(1-(2-(3,4-dimethylphenylamino)-2-oxoethyl)-1H-benzo[d]imidazol-2-yl)ethyl)benzamide]",2.8 ± 0.1
10,"O=C(Cn1c(CCNC(=O)c2ccccc2)nc2ccccc21)Nc1ccc2[nH]ccc2c1 [Compound 14, N-(2-(1-(2-(1H-indol-5-ylamino)-2-oxoethyl)-1H-benzo[d]imidazol-2-yl)ethyl)benzamide]",> 50
11,"O=C(Cn1c(CCNC(=O)c2ccccc2)nc2ccc(Cl)cc21)Nc1ccc2c(c1)CCC2 [Compound 24, N-(2-(6-chloro-1-(2-((2,3-dihydro-1H-inden-5-yl)amino)-2-oxoethyl)-1H-benzo[d]imidazol-2-yl)ethyl)benzamide]",4.2 ± 0.1
12,"O=C(Cn1c(CCNC(=O)c2ccccc2)nc2ccccc21)Nc1ccc(OCc2ccccc2)cc1 [Compound 11, N-(2-(1-(2-((4-(benzyloxy)phenyl)amino)-2-oxoethyl)-1H-benzo[d]imidazol-2-yl)ethyl)benzamide]",> 50
13,"O=C(Cn1c(CCNC(=O)c2ccccc2)nc2ccccc21)Nc1ccc2occc2c1 [Compound 7, N-(2-(1-(2-(benzofuran-5-ylamino)-2-oxoethyl)-1H-benzo[d]imidazol-2-yl)ethyl)benzamide]",3.3 ± 0.9
14,"Cc1ccc(NC(=O)Cn2c(CCN(C)C(=O)c3ccccc3)nc3ccccc32)cc1C [Compound 37, N-(2-(1-(2-((3,4-dimethylphenyl)amino)-2-oxoethyl)-1H-benzo[d]imidazol-2-yl)ethyl)-N-methylbenzamide]",1.6 ± 0.1
